{"source": "patent US7169818B2", "about": "“Lysophosphatidic acid receptor agonists and antagonists” (University of Virginia Patent Foundation, priority 2000, dated 2007)", "origin": "cited, not measured here", "conditions_in_all_cases": "previously reported; cited from earlier work", "key": {"human platelets": {"tested_on": "human platelets"}, "Xenopus laevis ooctyes": {"tested_on": "Xenopus laevis ooctyes"}, "human LPA2": {"biological_target": "human LPA2 (Homo sapiens, UniProt Q9HBW0)", "sequence (Q9HBW0 whole entry)": "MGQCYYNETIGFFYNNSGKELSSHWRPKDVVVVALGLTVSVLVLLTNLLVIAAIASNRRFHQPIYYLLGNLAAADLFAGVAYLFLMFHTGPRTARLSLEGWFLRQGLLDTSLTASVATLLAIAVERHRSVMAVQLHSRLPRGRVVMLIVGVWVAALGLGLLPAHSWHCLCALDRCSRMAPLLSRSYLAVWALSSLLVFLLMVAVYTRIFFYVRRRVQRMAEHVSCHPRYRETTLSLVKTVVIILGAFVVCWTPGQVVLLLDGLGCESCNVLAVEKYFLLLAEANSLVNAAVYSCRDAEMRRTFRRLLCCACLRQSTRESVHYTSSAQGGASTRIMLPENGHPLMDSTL", "design": "expressed in transfected cells; host or cells: HEK293T (transient)"}, "human LPA3": {"biological_target": "T1, human LPA3 (Homo sapiens, UniProt Q9UBY5)", "T1 sequence (Q9UBY5 1-353)": "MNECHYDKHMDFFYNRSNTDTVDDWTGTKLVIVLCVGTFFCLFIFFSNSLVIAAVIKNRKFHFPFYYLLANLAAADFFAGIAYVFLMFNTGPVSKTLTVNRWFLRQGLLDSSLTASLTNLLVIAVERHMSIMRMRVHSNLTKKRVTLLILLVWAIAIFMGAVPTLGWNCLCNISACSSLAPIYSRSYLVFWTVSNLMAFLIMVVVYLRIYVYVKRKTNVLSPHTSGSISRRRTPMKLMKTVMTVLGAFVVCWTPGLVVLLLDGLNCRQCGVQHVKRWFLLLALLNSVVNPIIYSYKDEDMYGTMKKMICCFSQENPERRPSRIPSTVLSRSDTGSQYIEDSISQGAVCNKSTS", "design": "expressed in transfected cells; host or cells: HEK293T (transient)"}, "mouse LPA1": {"biological_target": "mouse LPA1 (Mus musculus, UniProt P61793)", "sequence (P61793 whole entry)": "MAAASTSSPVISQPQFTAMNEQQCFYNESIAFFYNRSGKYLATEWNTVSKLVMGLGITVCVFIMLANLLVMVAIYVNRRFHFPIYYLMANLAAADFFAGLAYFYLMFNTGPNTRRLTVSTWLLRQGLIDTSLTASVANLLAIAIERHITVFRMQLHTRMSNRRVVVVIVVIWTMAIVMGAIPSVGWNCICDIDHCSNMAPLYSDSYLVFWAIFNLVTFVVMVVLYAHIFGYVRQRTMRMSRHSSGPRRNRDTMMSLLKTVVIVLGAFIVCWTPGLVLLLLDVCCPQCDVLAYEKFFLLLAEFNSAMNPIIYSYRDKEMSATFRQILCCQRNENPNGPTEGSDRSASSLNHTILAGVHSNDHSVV", "design": "expressed in transfected cells; host or cells: HEK293T (transient); for part of the results RH7777 membranes"}}}
{"smiles": "CCCCCCCC/C=C\\CCCCCCCC(=O)NCCOP(=O)(O)O", "note": "[NAEPA, N-oleoyl ethanolamide phosphoric acid]", "values": [{"measurement": "platelet aggregation (literature)", "setting": "human platelets", "value": "nearly indistinguishable from LPA"}, {"measurement": "oocyte depolarization (literature)", "setting": "Xenopus laevis ooctyes", "value": "distinctly less active than LPA"}, {"measurement": "GTP[γ35S] binding at LPA2 containing membranes relative to LPA (literature)", "setting": "human LPA2", "value": "nearly indistinguishable from LPA"}, {"measurement": "activity at recombinant LPA3 relative to LPA (literature)", "setting": "human LPA3", "value": "distinctly less active than LPA"}, {"measurement": "GTP[γ35S] binding at LPA1 containing membranes relative to LPA (literature)", "setting": "mouse LPA1", "value": "nearly indistinguishable from LPA"}]}
